Key:
[1] = cited from earlier work; for Rank order of topical activity: comparison between rac-BUD and its two epimers, Clissold et al.
[2] = Pharmacokinetic and metabolic profile / systemic exposure of the epimers; type: in vivo; settings: studies carried out by the applicant
[3] = HFA propellant containing ethanol and optionally a low volatility component; inhalers with internal surface of stainless steel, anodized aluminum or epoxy phenol resin lining; WO 00/30608; cited from earlier work
[4] = Clissold et al. 1984, Edbäcker et al. 1987; cited from earlier work
[5] = studies in the animals; Clissold et al. 1984, Edbäcker et al. 1987; cited from earlier work
[6] = Chemical and physical stability in solution; type: physicochemical; settings: solution formulations
Description: In WO 00/30608 published on Jun.
In the same application, further 22R-BUD solution compositions in HFA 134a or 227 are described whose relevant respirable dose and the respirable fraction have been determined. In these compositions, the concentration of the active ingredient is comprised between 0.06% and 0.14% w/v equivalent to single doses of w 60, 63 and 70 μg, respectively. However, although said formulations give rise to good performances in term of respirable fraction due to the low amount of ethanol, the polarity of the whole solvent system constituted of 7-8% w/w of ethanol and 0.9% w/w of isopropyl myristate or PEG 400 is too low, leading to physical stability problem, i.e. partial precipitation of the active ingredient, after storage under stress conditions.

[7] = Solubility in ethanol and ethanol/HFA mixtures; type: physicochemical; settings: in ethanol and mixtures containing ethanol and HFA134a or ethanol and HFA227

Compound	Ratio of topical to systemic activity ([1]; compared with other corticosteroids)	Rank order of topical activity [1] [R >rac-BUD >22S]	Systemic exposure versus corresponding epimer [2]	Stability in solution [3]	Pharmacokinetic and metabolic profile versus (22S) epimer [4]	Potency relative to the corresponding (22S) epimer [5] [times]	Chemical degradation tendency versus corresponding epimer [6]	Solubility versus corresponding epimer [7]
CCCC1O[C@@H]2C[C@H]3[C@@H]4CCC5=CC(=O)C=C[C@]5(C)[C@H]4[C@@H](O)C[C@]3(C)[C@]2(C(=O)CO)O1 (mixture of isomers) [rac-BUD, Budesonide]	high ratio of topical to systemic activity	22						
CCC[C@@H]1O[C@@H]2C[C@H]3[C@@H]4CCC5=CC(=O)C=C[C@]5(C)[C@H]4[C@@H](O)C[C@]3(C)[C@]2(C(=O)CO)O1 [Composition 22R-BUD, (22R)-budesonide]		22	different from that of its corresponding epimer	stable in solution	different pharmacokinetic and metabolic profile	2 to 3	higher tendency to exhibit chemical degradation than its corresponding epimer	significantly less soluble than its corresponding epimer
CCCC1OC2CC3C4CCC5=CC(=O)C=CC5(C)C4C(O)CC3(C)C2(C(=O)CO)O1 (stereo not shown) [Composition 22S]		22						

From US20030190289A1, “Formulations containing a glucocorticoid drug for the treatment of bronchopulmonary diseases” (priority 2000, published 2003)
